The nature of this series: activity coefficient (dimensionless); of the first substance listed, at infinite dilution; xn = mol fraction of the nth substance listed. Particulars: 101 kPa, Liquid, Chromatography, x1 = 0.

± gives the expanded uncertainty stated by the source.

As for `CCOC(C)(C)C` [2-ethoxy-2-methylpropane] + CCCCn1cc[n+](C)c1.CS(=O)(=O)[O-], the activity coefficient reads like this: (358.15 K) 35.3 ± 2.4; (368.15 K) 35.6 ± 2.4; (378.15 K) 36.1 ± 2.5; (388.15 K) 36.6 ± 2.5.

Take `CCCC=O` [butanal] + CCCCn1cc[n+](C)c1.CS(=O)(=O)[O-]: the activity coefficient came to 3.33 ± 0.23 (358.15 K), 3.44 ± 0.23 (368.15 K), 3.58 ± 0.24 (378.15 K) and 3.74 ± 0.25 (388.15 K).

`C=CCCCCC` [1-heptene] + CCCCn1cc[n+](C)c1.[Cl-]: the activity coefficient was 88.9 ± 6.1 (358.15 K), 83.8 ± 5.7 (368.15 K), 79.3 ± 5.4 (378.15 K) and 77.2 ± 5.3 (388.15 K).

On to `COC(C)=O` [methyl ethanoate] + CCCCn1cc[n+](C)c1.CS(=O)(=O)[O-], for which the activity coefficient runs as follows: (358.15 K) 2.94 ± 0.2; (368.15 K) 3.03 ± 0.21; (378.15 K) 3.14 ± 0.21; (388.15 K) 3.33 ± 0.23.

Take `COC(C)=O` [methyl ethanoate] + CCCCn1cc[n+](C)c1.COP(=O)([O-])OC: the activity coefficient came to 2.58 ± 0.18 (358.15 K), 2.65 ± 0.18 (368.15 K), 2.73 ± 0.19 (378.15 K) and 2.85 ± 0.19 (388.15 K).

In the case of `C#CCCCCC` [1-heptyne] + CCCCn1cc[n+](C)c1.COP(=O)([O-])OC, the activity coefficient (358.15 K) worked out at 4.21 ± 0.29, the activity coefficient (368.15 K) was found to be 4.48 ± 0.31, the activity coefficient (378.15 K) stood at 4.7 ± 0.32 and the activity coefficient (388.15 K) turned out to be 4.93 ± 0.34.

With `CC(C)=O` [acetone] + CCCCn1cc[n+](C)c1.[Cl-], the activity coefficient came out at 3.05 ± 0.21 (358.15 K), 3.12 ± 0.21 (368.15 K), 3.17 ± 0.22 (378.15 K) and 3.27 ± 0.22 (388.15 K).

On to `C#CCCCC` [1-hexyne] + CCCCn1cc[n+](C)c1.CS(=O)(=O)[O-], for which the activity coefficient runs as follows: (358.15 K) 8.02 ± 0.55; (368.15 K) 8.52 ± 0.58; (378.15 K) 9.06 ± 0.62; (388.15 K) 9.64 ± 0.66.

For the compound `c1ccccc1` [benzene] + CCCCn1cc[n+](C)c1.CS(=O)(=O)[O-], the activity coefficient came out at 3.08 ± 0.21 (358.15 K), 3.19 ± 0.22 (368.15 K), 3.29 ± 0.22 (378.15 K) and 3.46 ± 0.24 (388.15 K).

Take `Cc1ccccc1` [toluene] + CCCCn1cc[n+](C)c1.[Cl-]: the activity coefficient worked out at 7.78 ± 0.53 (358.15 K), 7.91 ± 0.54 (368.15 K), 8.09 ± 0.55 (378.15 K) and 8.36 ± 0.57 (388.15 K).

Turning to `Cc1cccc(C)c1` [1,3-dimethylbenzene] + CCCCn1cc[n+](C)c1.CS(=O)(=O)[O-], the activity coefficient by setting is: (358.15 K) 9.27 ± 0.63; (368.15 K) 9.43 ± 0.64; (378.15 K) 9.57 ± 0.65; (388.15 K) 9.92 ± 0.68.

For the compound `C=CCCCCCC` [oct-1-ene] + CCCCn1cc[n+](C)c1.[Cl-], the activity coefficient runs as follows: (358.15 K) 142 ± 9.7; (368.15 K) 134 ± 9.2; (378.15 K) 126 ± 8.6; (388.15 K) 122 ± 8.4.

In the case of `O` [water] + CCCCn1cc[n+](C)c1.COP(=O)([O-])OC, the activity coefficient was determined as 0.073 ± 0.03 (398.15 K), 0.081 ± 0.03 (408.15 K), 0.092 ± 0.03 (418.15 K) and 0.101 ± 0.03 (428.15 K).

With `CCCO` [propan-1-ol] + CCCCn1cc[n+](C)c1.[Cl-], the activity coefficient (398.15 K) came out at 0.408 ± 0.034, the activity coefficient (408.15 K) was found to be 0.434 ± 0.035, the activity coefficient (418.15 K) came out at 0.464 ± 0.036 and the activity coefficient (428.15 K) was found to be 0.501 ± 0.038.

In the case of `C#CCCC` [1-pentyne] + CCCCn1cc[n+](C)c1.[Cl-], the activity coefficient stood at 4.89 ± 0.33 (358.15 K), 5.25 ± 0.36 (368.15 K), 5.51 ± 0.38 (378.15 K) and 5.78 ± 0.39 (388.15 K).

For `CCC(=O)CC` [pentan-3-one] + CCCCn1cc[n+](C)c1.COP(=O)([O-])OC, the activity coefficient by setting is: (358.15 K) 3.73 ± 0.25; (368.15 K) 3.81 ± 0.26; (378.15 K) 3.89 ± 0.26; (388.15 K) 4.04 ± 0.28.

Take `Cc1ccccc1C` [1,2-dimethylbenzene] + CCCCn1cc[n+](C)c1.CS(=O)(=O)[O-]: the activity coefficient is 7.64 ± 0.52 (358.15 K), 7.79 ± 0.53 (368.15 K), 7.99 ± 0.54 (378.15 K) and 8.21 ± 0.56 (388.15 K).

`C=COC(C)=O` [vinyl acetate] + CCCCn1cc[n+](C)c1.CS(=O)(=O)[O-]: the activity coefficient (358.15 K) worked out at 3.47 ± 0.24, the activity coefficient (368.15 K) came to 3.58 ± 0.24, the activity coefficient (378.15 K) came to 3.76 ± 0.26 and the activity coefficient (388.15 K) came out at 3.92 ± 0.27.

For `C1=CCCCC1` [cyclohexene] + CCCCn1cc[n+](C)c1.COP(=O)([O-])OC, the activity coefficient by setting is: (358.15 K) 7.15 ± 0.49; (368.15 K) 7.13 ± 0.49; (378.15 K) 7.11 ± 0.48; (388.15 K) 7.11 ± 0.48.

In the case of `CCCCCCCCC` [nonane] + CCCCn1cc[n+](C)c1.[Cl-], the activity coefficient reads like this: (358.15 K) 476 ± 33; (368.15 K) 433 ± 30; (378.15 K) 394 ± 27; (388.15 K) 376 ± 26.

As for `CCOCC` [diethyl ether] + CCCCn1cc[n+](C)c1.COP(=O)([O-])OC, the activity coefficient (358.15 K) was determined as 6.21 ± 0.42, the activity coefficient (368.15 K) turned out to be 6.3 ± 0.43, the activity coefficient (378.15 K) was 6.39 ± 0.44 and the activity coefficient (388.15 K) worked out at 6.48 ± 0.44.

On to `O` [water] + CCCCn1cc[n+](C)c1.[Cl-], for which the activity coefficient runs as follows: (398.15 K) 0.07 ± 0.03; (408.15 K) 0.077 ± 0.03; (418.15 K) 0.085 ± 0.03; (428.15 K) 0.094 ± 0.03.

Regarding `COC(C)=O` [methyl ethanoate] + CCCCn1cc[n+](C)c1.[Cl-], the activity coefficient is, setting by setting: (358.15 K) 4.82 ± 0.33; (368.15 K) 4.89 ± 0.33; (378.15 K) 5.01 ± 0.34; (388.15 K) 5.09 ± 0.35.

For `CCCCO` [butan-1-ol] + CCCCn1cc[n+](C)c1.[Cl-], the activity coefficient is, setting by setting: (398.15 K) 0.558 ± 0.04; (408.15 K) 0.594 ± 0.042; (418.15 K) 0.635 ± 0.044; (428.15 K) 0.68 ± 0.046.

For the compound `C1CCCCC1` [cyclohexane] + CCCCn1cc[n+](C)c1.CS(=O)(=O)[O-], the activity coefficient reads like this: (358.15 K) 35.2 ± 2.4; (368.15 K) 34.5 ± 2.4; (378.15 K) 33.9 ± 2.3; (388.15 K) 33.8 ± 2.3.

With `CC(C)CO` [2-methyl-1-propanol] + CCCCn1cc[n+](C)c1.CS(=O)(=O)[O-], the activity coefficient by setting is: (398.15 K) 0.893 ± 0.057; (408.15 K) 0.938 ± 0.059; (418.15 K) 0.991 ± 0.062; (428.15 K) 1.04 ± 0.066.

In the case of `C=CCCCCCCCC` [1-decene] + CCCCn1cc[n+](C)c1.[Cl-], the activity coefficient (358.15 K) stood at 323 ± 22, the activity coefficient (368.15 K) stood at 306 ± 21, the activity coefficient (378.15 K) was 285 ± 20 and the activity coefficient (388.15 K) was 277 ± 19.

Regarding `C=CCCCCC` [1-heptene] + CCCCn1cc[n+](C)c1.CS(=O)(=O)[O-], the activity coefficient by setting is: (358.15 K) 59.2 ± 4.1; (368.15 K) 58.9 ± 4; (378.15 K) 58.7 ± 4; (388.15 K) 58 ± 4.

Consider `CCCOCCC` [dipropyl ether] + CCCCn1cc[n+](C)c1.CS(=O)(=O)[O-], for which the activity coefficient reads like this: (358.15 K) 38.1 ± 2.6; (368.15 K) 38.7 ± 2.6; (378.15 K) 38.9 ± 2.7; (388.15 K) 39.4 ± 2.7.

Regarding `CC(C)O` [propan-2-ol] + CCCCn1cc[n+](C)c1.COP(=O)([O-])OC, the activity coefficient came to 0.256 ± 0.03 (398.15 K), 0.282 ± 0.03 (408.15 K), 0.311 ± 0.031 (418.15 K) and 0.344 ± 0.032 (428.15 K).

As for `C=CCCCCC` [1-heptene] + CCCCn1cc[n+](C)c1.COP(=O)([O-])OC, the activity coefficient amounted to 19.6 ± 1.3 (358.15 K), 19.4 ± 1.3 (368.15 K), 19.1 ± 1.3 (378.15 K) and 18.9 ± 1.3 (388.15 K).

In the case of `c1ccsc1` [thiophene] + CCCCn1cc[n+](C)c1.[Cl-], the activity coefficient is 2.04 ± 0.14 (358.15 K), 2.16 ± 0.15 (368.15 K), 2.27 ± 0.15 (378.15 K) and 2.41 ± 0.16 (388.15 K).

For `CCCC(C)=O` [pentan-2-one] + CCCCn1cc[n+](C)c1.COP(=O)([O-])OC, the activity coefficient by setting is: (358.15 K) 3.63 ± 0.25; (368.15 K) 3.7 ± 0.25; (378.15 K) 3.78 ± 0.26; (388.15 K) 3.94 ± 0.27.

On to `C#CCCCCCC` [1-octyne] + CCCCn1cc[n+](C)c1.CS(=O)(=O)[O-], for which the activity coefficient by setting is: (358.15 K) 17.8 ± 1.2; (368.15 K) 18.6 ± 1.3; (378.15 K) 19.5 ± 1.3; (388.15 K) 20.4 ± 1.4.

In the case of `C=C(C)c1ccccc1` [(1-methylethenyl)benzene] + CCCCn1cc[n+](C)c1.[Cl-], the activity coefficient runs as follows: (358.15 K) 9.01 ± 0.61; (368.15 K) 9.33 ± 0.64; (378.15 K) 9.83 ± 0.67; (388.15 K) 10.3 ± 0.71.

On to `C1=CCCCC1` [cyclohexene] + CCCCn1cc[n+](C)c1.CS(=O)(=O)[O-], for which the activity coefficient was 18.4 ± 1.3 (358.15 K), 18.6 ± 1.3 (368.15 K), 18.7 ± 1.3 (378.15 K) and 19 ± 1.3 (388.15 K).

In the case of `CC(C)CO` [2-methyl-1-propanol] + CCCCn1cc[n+](C)c1.COP(=O)([O-])OC, the activity coefficient runs as follows: (398.15 K) 0.23 ± 0.029; (408.15 K) 0.254 ± 0.03; (418.15 K) 0.281 ± 0.03; (428.15 K) 0.313 ± 0.031.

As for `CC(C)OC(C)C` [diisopropyl ether] + CCCCn1cc[n+](C)c1.CS(=O)(=O)[O-], the activity coefficient (358.15 K) turned out to be 40.6 ± 2.8, the activity coefficient (378.15 K) worked out at 40.8 ± 2.8 and the activity coefficient (388.15 K) worked out at 41.2 ± 2.8.

The record behind these values is the NIST ThermoML archive (doi:10.1016/j.jct.2015.07.042).
